Measurements taken from BindingDB's records for doi:10.1021/cb500820b (University of Massachusetts Medical School, 2015).
pKd: −log10 of the molar value.

Target: C-terminal-binding protein 2 (Homo sapiens, UniProt P56545)
Experiment: CtBP2 ITC
Conditions: pH 8.5
Excerpt: Five mM MTOB was utilized for competitive displacement assays.

## CSCCC(=O)C(=O)O [4-Methylthio 2-oxobutyric acid (MTOB)]
  pKd: 2.53
